Test results from patent US8071558B2, “Application of D-psicose to suppression of abnormal circadian increase in blood glucose level” (Rare Sugar Production Technical Research Laboratories, LLC., priority 2005, dated 2011).

Legend:
maltase = assay: Maltose administration experiment (inhibition of maltase in vivo), plasma glucose; design: species or system rat; settings: rats; for Plasma glucose level, 0 min: before maltose 2 g/kg + test sugar 200 mg/kg; for Plasma glucose level, 30 min / Plasma glucose level, 60 min / Plasma glucose level, 90 min / Plasma glucose level, 120 min / ΔAUC of plasma glucose level: maltose 2 g/kg + test sugar 200 mg/kg
Experimental: (§1) Thirty-six male Wistar rats of age 6 months are divided into 6 groups. The following sugars were given to the rats in the individual groups after 12-hour fasting. Before the administration and 30, 60, 90, 120 and 180 minutes after the administration, blood is drawn from the tail vein, to assay plasma glucose and insulin concentration.
2. Maltose 2 g/kg+L-arabinose 200 mg/kg (MA)
3. Maltose 2 g/kg+D-xylose 200 mg/kg (MX)
4. Maltose 2 g/kg+D-fructose 200 mg/kg (MF)
5. Maltose 2 g/kg+D-psicose 200 mg/kg (MP)
6. Maltose 2 g/kg+(fructose 150 mg/kg+psicose 50 mg/kg) (MFP)
(§2) Before the administration and 30, 60, 90, 120 and 180 minutes after the administration, plasma glucose level was assayed. The plasma glucose level 180 minutes later was used to calculate the area under the curve of plasma glucose level (ΔAUC).

sucrase = molecular target: T1, sucrase (Rattus norvegicus, UniProt P23739); assay: Sucrose administration experiment (inhibition of sucrase in vivo), plasma glucose; settings: rats; for Plasma glucose level, 0 min: before sucrose 2 g/kg + test sugar 200 mg/kg; for Plasma glucose level, 30 min / Plasma glucose level, 60 min / Plasma glucose level, 90 min / Plasma glucose level, 120 min / ΔAUC of plasma glucose level: sucrose 2 g/kg + test sugar 200 mg/kg
T1 construct: from tissue; host or cells: small intestine of live male Wistar rats (oral sugar load)
Experimental: Sucrose 2 g/kg+L-arabinose 200 mg/kg (SA)
Sucrose 2 g/kg+D-xylose 200 mg/kg (SX)
Sucrose 2 g/kg+D-fructose 200 mg/kg (SF)
Sucrose 2 g/kg+D-psicose 200 mg/kg (SP)
Sucrose 2 g/kg+(fructose 150 mg/kg+psicose 50 mg/kg) (SFP)

[1] = tested on: diabetic rats (fatty Zucker rats); settings: cited from earlier work
Male Wistar rats [2] = assay: Oral glucose tolerance test: influence of D-psicose on the reaction of increasing blood glucose; format: in vivo, rat; settings: for blood glucose level compared with single administration of D-glucose: minutes after administration; for increase of the blood glucose level: oral D-glucose 2 g/kg with test sugar 0.32 g/kg (16% of D-glucose) simultaneously
Experimental: Male Wistar rats of age 6 months were fed ad libitum under a condition that the bright cycle was at a temperature of 25° C. and a humidity of 50 to 70% from 8:00 am to 20:00 pm, for preliminary feeding for one week. On the day before the experiment, the rats were fasted for 12 hours and subsequently orally given D-glucose at 2 g/kg (in the form of 50% glucose solution) using a probe. Blood was drawn before the dosing and 30, 60, 90, 120, 150 and 180 minutes after the dosing. Blood glucose level was measured with a blood glucose meter. Alternatively, D-fructose or D-psicose at 0.32 g/kg (at 16% of D-glucose) was simultaneously given with D-glucose at 2 g/kg. In the same manner, blood glucose level was measured. Based on the resulting blood glucose levels, the area under the curve of blood glucose level (ΔAUC) was calculated.

Male Wistar rats [3] = assay: Soluble starch administration experiment, plasma glucose; format: in vivo, rat; settings: for Plasma glucose level, 0 min: before soluble starch 2 g/kg + test sugar 200 mg/kg; for Plasma glucose level, 30 min / Plasma glucose level, 60 min / Plasma glucose level, 90 min / Plasma glucose level, 120 min / ΔAUC of plasma glucose level: soluble starch 2 g/kg + test sugar 200 mg/kg
Experimental: as §1
1. Soluble starch 2 g/kg (SS)
2. Soluble starch 2 g/kg+L-arabinose 200 mg/kg (SSA)
3. Soluble starch 2 g/kg+D-xylose 200 mg/kg (SSX)
4. Soluble starch 2 g/kg+D-fructose 200 mg/kg (SSF)
5. Soluble starch 2 g/kg+D-psicose 200 mg/kg (SSP)
6. Soluble starch 2 g/kg+(fructose 150 mg/kg+psicose 50 mg/kg) (SSFP)
as §2

liver [4] = settings: in vivo; cited from earlier work
liver [5] = settings: D-psicose added up to 20% of the weight of the feeds; cited from earlier work
α-glucosidase = settings: in vitro; cited from earlier work
Male Wistar rats [6] = assay: Intra-day variation of plasma glucose concentration in rats fed 5% sugar diets; format: in vivo, rat; settings: 5% in diet, fed twice daily for 8 weeks
Excerpt: Forty male Wistar rats of age 3 weeks were preliminarily fed for one week and then divided into 4 groups. Then, a control diet (AIN-76A), and the control diet with addition of 5% D-fructose, the control diet with addition of 5% D-psicose, and the control diet with addition of 5% psico-rare sugar were fed to the rats, twice daily (at 8 to 9 am and at 20 to 21 pm) ad libitum for 8 weeks. At 2 am, 6 am, 10 am, 14 pm, 18 pm and 22 pm on the week 7 or 8 of the feeding, blood was drawn from the tail veins of the rats. Plasma was separated from the blood to assay glucose concentration.

pancreatic island cells = settings: in vitro; cited from earlier work
Male Wistar rats [7] = assay: Influence of D-psicose diet on liver weight and composition (16-week feeding); format: in vivo, rat; settings: 16 weeks
Experimental: Twenty-four male Wistar rats of age 3 weeks were fed ad libitum under a condition that the bright cycle was at a temperature of 25° C. and a humidity of 50 to 70% from 8:00 am to 20:00 pm, for preliminary feeding for one week. Subsequently, the rats were divided into 4 groups, each group consisting of 6 rats. The groups were defined a high fat/D-psicose diet (HF-P) group; a high fat/cellulose diet (HF-C) group; a low fat/D-psicose diet (LF-P) group; and a low fat/cellulose diet (LF-C) group. 20% beef fat and 5% soybean oil were used to prepare the high fat diets. 5% soybean oil was used to prepare the low fat diets. 5% D-psicose or cellulose was added to the individual diets. These rats were fed these experimental diets and water ad libitum for 16 weeks. On the last day of the experiment, the rats were decapitated and sacrificed to death, from which liver, flounder muscle and intraperitoneal fat tissues were resected. Glycogen, neutral fat and protein were assayed in the liver, while glycogen content was assayed in the flounder muscle. [table]

[8] = D-glucose 2 g/kg + 0.32 g/kg test sugar

T1 sequence (P23739 whole entry): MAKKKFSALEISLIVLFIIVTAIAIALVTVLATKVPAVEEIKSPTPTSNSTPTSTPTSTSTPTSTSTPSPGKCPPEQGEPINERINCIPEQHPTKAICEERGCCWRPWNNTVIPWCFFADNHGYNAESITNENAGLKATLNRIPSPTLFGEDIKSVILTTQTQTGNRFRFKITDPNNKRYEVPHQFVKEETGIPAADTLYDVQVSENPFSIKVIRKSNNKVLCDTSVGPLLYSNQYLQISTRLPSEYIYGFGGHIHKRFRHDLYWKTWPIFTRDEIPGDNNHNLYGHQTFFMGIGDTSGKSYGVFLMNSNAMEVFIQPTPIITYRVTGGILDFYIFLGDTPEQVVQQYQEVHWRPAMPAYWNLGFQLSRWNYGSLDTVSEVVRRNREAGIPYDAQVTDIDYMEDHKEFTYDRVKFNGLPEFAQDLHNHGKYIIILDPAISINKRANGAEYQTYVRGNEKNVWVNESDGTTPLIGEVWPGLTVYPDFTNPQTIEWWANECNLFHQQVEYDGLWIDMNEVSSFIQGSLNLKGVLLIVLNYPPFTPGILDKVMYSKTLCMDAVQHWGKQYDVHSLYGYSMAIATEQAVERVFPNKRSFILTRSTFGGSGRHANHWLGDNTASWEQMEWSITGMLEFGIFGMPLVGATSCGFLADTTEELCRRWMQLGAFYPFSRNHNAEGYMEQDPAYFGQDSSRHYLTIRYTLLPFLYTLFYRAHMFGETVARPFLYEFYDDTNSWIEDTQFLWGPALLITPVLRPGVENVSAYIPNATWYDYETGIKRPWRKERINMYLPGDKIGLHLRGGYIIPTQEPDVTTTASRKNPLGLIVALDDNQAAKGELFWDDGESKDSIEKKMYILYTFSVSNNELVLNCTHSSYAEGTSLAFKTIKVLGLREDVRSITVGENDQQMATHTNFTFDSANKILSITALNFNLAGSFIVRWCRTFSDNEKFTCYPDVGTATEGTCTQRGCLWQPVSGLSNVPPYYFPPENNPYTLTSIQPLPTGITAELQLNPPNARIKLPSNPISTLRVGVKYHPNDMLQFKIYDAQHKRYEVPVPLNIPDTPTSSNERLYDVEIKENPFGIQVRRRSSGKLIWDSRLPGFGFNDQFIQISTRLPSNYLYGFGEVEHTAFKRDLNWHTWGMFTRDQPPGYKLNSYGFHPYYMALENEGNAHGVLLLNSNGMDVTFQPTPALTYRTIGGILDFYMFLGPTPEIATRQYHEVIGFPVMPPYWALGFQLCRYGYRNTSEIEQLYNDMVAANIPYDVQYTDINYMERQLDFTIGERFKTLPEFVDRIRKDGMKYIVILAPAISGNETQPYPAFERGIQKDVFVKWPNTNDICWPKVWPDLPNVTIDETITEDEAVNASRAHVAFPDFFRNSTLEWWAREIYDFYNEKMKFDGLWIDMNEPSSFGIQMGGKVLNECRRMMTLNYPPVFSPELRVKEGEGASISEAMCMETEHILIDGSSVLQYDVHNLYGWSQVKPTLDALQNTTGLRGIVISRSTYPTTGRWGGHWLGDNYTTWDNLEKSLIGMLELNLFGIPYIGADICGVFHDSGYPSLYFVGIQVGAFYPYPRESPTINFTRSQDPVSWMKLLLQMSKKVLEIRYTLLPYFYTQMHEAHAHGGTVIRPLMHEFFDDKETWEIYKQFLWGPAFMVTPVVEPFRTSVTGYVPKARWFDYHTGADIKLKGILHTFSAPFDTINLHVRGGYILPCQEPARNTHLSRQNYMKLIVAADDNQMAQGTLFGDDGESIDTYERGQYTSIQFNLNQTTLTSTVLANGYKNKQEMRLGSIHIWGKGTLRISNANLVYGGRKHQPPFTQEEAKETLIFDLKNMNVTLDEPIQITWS

**Q.** Which results are given for `O=C(CO)[C@@H](O)[C@H](O)[C@H](O)CO` [D-fructose]?
**A.** Plasma glucose level, 0 min (maltase): 81 ± 10 mg/dL; Plasma glucose level, 30 min (maltase): 139 ± 15 mg/dL; Plasma glucose level, 60 min (maltase): 156 ± 20 ab mg/dl; Plasma glucose level, 90 min (maltase): 152 ± 10 mg/dL; Plasma glucose level, 120 min (maltase): 142 ± 12 mg/dL; ΔAUC of plasma glucose level (maltase): 7031 min^− mg/dl; Plasma glucose level, 0 min (sucrase): 97 mg/dL; Plasma glucose level, 30 min (sucrase): 134 ± 13 ab mg/dl; Plasma glucose level, 60 min (sucrase): 148 ± 12 ab mg/dl; Plasma glucose level, 90 min (sucrase): 147 ± 9 ab mg/dl; Plasma glucose level, 120 min (sucrase): 141 ± 7 mg/dL; ΔAUC of plasma glucose level (sucrase): 4732 min^− mg/dl; reaction of increasing blood glucose via D-glucose and maltodextrin [1]: suppressed; ΔAUC of blood glucose level compared with single D-glucose administration (Male Wistar rats [2]; [8]): significantly low; blood glucose level compared with single administration of D-glucose (Male Wistar rats [2]; [8]): significantly low in 90 and 120 minutes; increase of the blood glucose level (Male Wistar rats [2]): suppressed; Plasma glucose level, 0 min (Male Wistar rats [3]): 92 ± 4 mg/dL; Plasma glucose level, 30 min (Male Wistar rats [3]): 130 ± 15 mg/dL; Plasma glucose level, 60 min (Male Wistar rats [3]): 137 ± 21 mg/dL; Plasma glucose level, 90 min (Male Wistar rats [3]): 132 ± 13 mg/dL; Plasma glucose level, 120 min (Male Wistar rats [3]): 130 ± 13 mg/dL; ΔAUC of plasma glucose level (Male Wistar rats [3]): 4243 min^− mg/dl

**Q.** With `O=C(CO)[C@H](O)[C@H](O)[C@H](O)CO` [D-psicose] as the compound, how does the “Plasma glucose level, 0 min” value (maltase) read?
**A.** 82 ± 8 mg/dL

**Q.** What about the “action to suppress the increase of blood glucose level” value (maltase; given simultaneously with maltose (experiment 2)) of the same compound?
**A.** the effect was low

**Q.** And the “Plasma glucose level, 30 min” value (maltase)?
**A.** 125 ± 21 mg/dL

**Q.** And the “Plasma glucose level, 60 min” value (maltase)?
**A.** 147 ± 16 b mg/dl

**Q.** What about the “Plasma glucose level, 90 min” value (maltase) of the same compound?
**A.** 146 ± 14 mg/dL

**Q.** What about the “Plasma glucose level, 120 min” value (maltase) of the same compound?
**A.** 132 ± 13 mg/dL

**Q.** And the “ΔAUC of plasma glucose level” value (maltase)?
**A.** 5887 min^− mg/dl

**Q.** And the “Plasma glucose level, 0 min” value (sucrase)?
**A.** 89 mg/dL

**Q.** What about the “increase of blood glucose level up to 60 minutes after the administration, compared with sucrose alone” value (sucrase; given simultaneously with sucrose) of the same compound?
**A.** suppressed

**Q.** What about the “Plasma glucose level, 30 min” value (sucrase) of the same compound?
**A.** 128 ± 12 ab mg/dl

**Q.** What about the “Plasma glucose level, 60 min” value (sucrase) of the same compound?
**A.** 139 ± 13 ab mg/dl

**Q.** And the “Plasma glucose level, 90 min” value (sucrase)?
**A.** 150 ± 20 a mg/dl

**Q.** What about the “Plasma glucose level, 120 min” value (sucrase) of the same compound?
**A.** 143 ± 28 mg/dL

**Q.** What about the “ΔAUC of plasma glucose level” value (sucrase) of the same compound?
**A.** 5339 min^− mg/dl

**Q.** And the “toxicity causing the deterioration of the hepatic function” value (liver [4])?
**A.** no toxicity

**Q.** And the “liver weight per body weight” value (liver [5])?
**A.** tended to increase

**Q.** And the α-glucosidase inhibition (α-glucosidase)?
**A.** inhibits

**Q.** And the “increment of the area under the curve of plasma glucose concentration (ΔAUC) based on 8 am, compared with control and D-fructose groups” value (Male Wistar rats [6])?
**A.** significantly small

**Q.** What about the “plasma glucose concentration compared with the control group and the D-fructose group” value (Male Wistar rats [6]; week 7 or 8) of the same compound?
**A.** low throughout the day

**Q.** What about the “insulin secretion from pancreatic island cells” value (pancreatic island cells) of the same compound?
**A.** promoted

**Q.** What about the “liver weight, effect of addition of D-psicose” value (Male Wistar rats [7]; 5% in diet, irrespective of the fat content, vs cellulose diet) of the same compound?
**A.** increased

**Q.** What about the “hepatic glycogen content, effect of addition of D-psicose” value (Male Wistar rats [7]; 5% in diet, vs cellulose diet) of the same compound?
**A.** tended to increase

**Q.** What about the “protein content per liver, effect of addition of D-psicose” value (Male Wistar rats [7]; 5% in diet, vs cellulose diet) of the same compound?
**A.** significantly increased

**Q.** What about the “weight of intraperitoneal fat tissues, effect of addition of D-psicose” value (Male Wistar rats [7]; 5% in diet, vs cellulose diet) of the same compound?
**A.** no influence

**Q.** And the Flounder muscle weight (Male Wistar rats [7]; high fat diet + 5% D-psicose)?
**A.** 210 ± 8 mg

**Q.** And the Liver weight (Male Wistar rats [7]; high fat diet + 5% D-psicose)?
**A.** 9.5 ± 0.5 g

**Q.** And the “Weight of intraperitoneal fat tissues” value (Male Wistar rats [7]; high fat diet + 5% D-psicose)?
**A.** 27 ± 2 g

**Q.** What about the Flounder muscle weight (Male Wistar rats [7]; low fat diet + 5% D-psicose) of the same compound?
**A.** 209 ± 10 mg

**Q.** What about the Liver weight (Male Wistar rats [7]; low fat diet + 5% D-psicose) of the same compound?
**A.** 13.2 ± 0.3 g

**Q.** And the “Weight of intraperitoneal fat tissues” value (Male Wistar rats [7]; low fat diet + 5% D-psicose)?
**A.** 23 ± 1 g

**Q.** What about the “increasing rate of blood glucose level compared with D-fructose” value (Male Wistar rats [2]; [8]) of the same compound?
**A.** likely reduced

**Q.** And the “ΔAUC of blood glucose level compared with single D-glucose administration” value (Male Wistar rats [2]; [8])?
**A.** significantly low

**Q.** What about the “blood glucose level compared with single administration of D-glucose” value (Male Wistar rats [2]; [8]) of the same compound?
**A.** significantly low in 60, 90 and 120 minutes

**Q.** What about the “increase of the blood glucose level” value (Male Wistar rats [2]) of the same compound?
**A.** suppressed

**Q.** And the “Plasma glucose level, 0 min” value (Male Wistar rats [3])?
**A.** 91 ± 10 mg/dL

**Q.** What about the “action to suppress the increase of blood glucose level” value (Male Wistar rats [3]; given simultaneously with soluble starch (experiment 3)) of the same compound?
**A.** the effect was low

**Q.** What about the “Plasma glucose level, 30 min” value (Male Wistar rats [3]) of the same compound?
**A.** 128 ± 12 mg/dL

**Q.** What about the “Plasma glucose level, 60 min” value (Male Wistar rats [3]) of the same compound?
**A.** 123 ± 21 mg/dL

**Q.** What about the “Plasma glucose level, 90 min” value (Male Wistar rats [3]) of the same compound?
**A.** 121 ± 17 mg/dL

**Q.** What about the “Plasma glucose level, 120 min” value (Male Wistar rats [3]) of the same compound?
**A.** 122 ± 16 mg/dL

**Q.** And the “ΔAUC of plasma glucose level” value (Male Wistar rats [3])?
**A.** 3344 min^− mg/dl
